These results are taken from US20120009152A1, “NITRIC OXIDE DONORS FOR TREATMENT OF DISEASE AND INJURY” (priority 2002, published 2012).

The subject of assay [1] is rats subjected to embolic MCA occlusion. As to the kind of experiment: Rotarod test after embolic MCA occlusion, SNAP study. In kind it is in vivo, rat. The following applies: SNAP at 24 hours after MCA occlusion; by 4 days after stroke, persisted to 14 days. The protocol: (§1) The question arises as to the specificity of this NO agent for the induction of neurogenesis and functional benefit. Are the effects specific for DETA/NONOate or would other agents that donate NO likewise provide functional benefit? To test this question, rats were treated with another NO donor, S-nitroso-N-acetylpenicillamine (SNAP, Sigma) that is structurally different from DETA/NONOate. Young, male adult Wistar rats were subjected to embolic MCA occlusion (Zhang et al., 1997). SNAP at a dose of 30 μg/kg was intravenously administered to rats as a bolus followed by 300 μg/kg/h infusion for 60 minutes at 24 hours after embolic MCA occlusion. As functional outcome measures, the rotarod test which assesses motor function such as coordination and balance (Zhang et al., 2000), the adhesive removal test which measures forelimb somato-sensorimotor asymmetries (Schallert et al., 2000), and animal body weight were measured prior to treatment and at 2, 4, 7, and 14 days after treatment. Animals were sacrificed at 14 days after stroke and the infarct volume was measured (Zhang, et al., 1997). […] These benefits persisted to the time of sacrifice at 14 days post stroke. […] Thus, the effect of the treatment is one of restorative therapy not neuroprotective therapy. […] Functional improvement in these animals is associated with change and remodeling of brain. […]
In general terms: The rotarod test checks motor coordination on a turning rod.

The test system is the same in assay [2]. As to the kind of experiment: Adhesive removal test after embolic MCA occlusion, SNAP study. The settings on record: SNAP at 24 hours after MCA occlusion; by 4 days after stroke, persisted to 14 days. The format is in vivo, rat. As for the experimental part: as §1
Assay [3] in a line: Animal body weight after embolic MCA occlusion, SNAP study. The format is in vivo, rat. The settings on record: SNAP at 24 hours after MCA occlusion; 7 days after stroke; vs saline. The protocol:
as §1

The test system of assay [4] is rats subjected to embolic MCA occlusion. Kind of assay: Infarct volume after embolic MCA occlusion, SNAP study. In kind it is in vivo, rat. The following applies: SNAP 30 μg/kg iv bolus then 300 μg/kg/h for 60 minutes at 24 hours after MCA occlusion; 14 days; vs saline. As for the experimental part:
as §1

Assay [5] has as its system Mouse brain-derived endothelial cells. Kind of assay: Capillary-like tube formation assay. In kind it is cell-based. The protocol: An in vitro angiogenesis assay was performed. Briefly, 0.8 ml of growth factor reduced Matrigel (Becton Dickinson) was added to pre-chilled 35 mm culture dishes and allowed to polymerize at 37° C. for 2 to 5 hours. […] For quantitative measurements of capillary tube formation, three random areas of Matrigel dishes were imaged and the length of continuous cords of three or more cells was measured.

The next assay has as its system basilar artery. The following applies: rats; cited from earlier work.
Another assay deals with cGMP. The settings on record: local administration to rat brain slices; cited from earlier work.
Another assay concerns dog cerebral arteries. The following applies: cited from earlier work.

For `CC(=O)N[C@H](C(=O)O)C(C)(C)SN=O` (racemic) [SNAP, S-nitroso-N-acetylpenicillamine], the “function measured with the rotarod” value in assay [1] is on record as “significant improvement”. Besides, the “function measured with the adhesive removal test” value in assay [2] was “significant improvement”. In assay [3], the Animal body weight entry was “significantly increased”. Moreover, the “volume of cerebral infarction” value in assay [4] is given as “no significant difference”.

On to `Nc1nc2c(nc(Br)n2[C@@H]2O[C@@H]3COP(=O)(O)O[C@H]3[C@H]2O)c(=O)[nH]1` [8-BrcGMP, 8-Br-cGMP], for which the capillary-like tube formation result in assay [5] (8-BrcGMP 1 mM) was “significantly (p<0.05) increased”.

As to `O=c1onc2cnc3ccccc3n12` [ODQ, 1H-[1,2,4]oxadiazolo[4,3-a]quinoxaline-1-one], the “inhibition of DETANONOate-induced capillary-like tube formation” value in assay [5] (DETANONOate in the presence of ODQ) is given as “completely inhibited”. Further, the “inhibition of 8-BrcGMP-induced capillary-like tube formation” value in assay [5] (ODQ) is recorded as “did not significantly inhibit”. The “inhibition of Sildenafil-induced capillary-like tube formation” value in assay [5] (ODQ 10 μM, Sildenafil 300 nM) was “significantly inhibited”.

Take `CCCOc1ccccc1-c1nc2nn[nH]c2c(=O)[nH]1` [zaprinast]: the “dilatation of the basilar artery” value in the assay with basilar artery is “elicits dilatation of the basilar artery”. In the assay with cGMP, the cGMP release entry is “increase of cGMP release”. In addition, the “dilatation of cerebral arteries” value in the assay on dog cerebral arteries was “produces dilatation of dog cerebral arteries”.
